Values of other authors, collected in patent US4981869A, “Xanthates as antitumor agents” (priority 1980, dated 1991).

Tested on: Herpes virus
Details: two immunosuppressed patients; Burns et al., The Lancet, Feb. 20, 1982; cited from earlier work

In the case of Nc1nc2c(ncn2COCCO)c(=O)[nH]1 [Acyclovir], the “susceptibility of herpes virus mutants arising under treatment” value is listed as “considerably less susceptible to treatment with that particular drug than the initially-recognized virus”.
